Experimental data published in patent publication US9370189B2, “Controlling Pseudomonas aeruginosa persister cells with GM-CSF” (priority 2012, dated 2016).
Several values for one entry are separate records, joined by “and”; a condition that tells them apart may be missing. Equal values may be shown once.

What was measured:
P. aeruginosa PAO1 = experiment: Effect of GM-CSF on planktonic PAO1 cells (total viable cells and persisters) at exponential phase, alone and with antibiotic, CFU by drop plate; assay type: cell-based, Pseudomonas aeruginosa; conditions: for % change in avg. CFU/ml after adding factor + CIP / % change in avg. CFU/ml after adding factor + GEN / % change in avg. CFU/ml after adding factor + TET / % change in avg. CFU/ml after adding factor + TOB / average CFU/mL of persisters reduced by / average CFU/mL of total viable cells reduced by: planktonic PAO1; for % change in avg. CFU/ml after adding factor + CIP: 2.43 pg/mL GM-CSF with 200 μg/mL ciprofloxacin; for % change in avg. CFU/ml after adding factor + GEN: 2.43 pg/mL GM-CSF with 200 μg/mL gentamicin; for % change in avg. CFU/ml after adding factor + TET: 2.43 pg/mL GM-CSF with 200 μg/mL tetracycline; for % change in avg. CFU/ml after adding factor + TOB: 2.43 pg/mL GM-CSF with 200 μg/mL tobramycin; for average CFU/mL of persisters reduced by / average CFU/mL of total viable cells reduced by: reduction
Procedure: (§1) This Example describes the treatment of planktonic P. aeruginosa PAO1, PDO300 and Escherichia coli K12, with GM-CSF introduced directly or together with an antibiotic to test the synergy. All experiments were conducted with cells harvested from exponential phase subcultures with an optical density at 600 nm (OD600) of 0.3 to 0.4.
(§2) In brief, after preparing an overnight culture of the tested strain in 25 ml LB medium, a subculture was prepared with an OD600 of 0.01 in 50 mL LB medium. The subculture was incubated at 37° C. with shaking at 200 rpm for 3-4 h, till an OD600 of 0.3 to 0.4 was reached. The exponential phase subculture was then divided equally into two centrifuge tubes, each containing 25 mL of the subculture. The subcultures were washed twice with 0.85% NaCl buffer by vortexing and then centrifuging at 4° C., 8000 rpm for 10 min each time. The washed subcultures/cells were resuspended in 25 mL 0.85% NaCl buffer and vortexed gently for 1 min. One of the tubes of subculture was selected for isolation of persisters by adding 200 μg/mL ciprofloxacin (for PAO1 and PDO300 strains) or 100 μg/mL ampicillin (for E. coli K12 strain). After adding the antibiotic for persister isolation, the subculture was incubated at 37° C., shaking at 200 rpm for 3.5 h.
(§3) To test the effects of GM-CSF on viability of persisters, the second tube was used to quantify the total number of viable cells and 1 mL of the washed persister cells was divided into 6 microcentrifuge tubes; 3 were control and the other 3 were GM-CSF treatment samples. In the treatment samples, GM-CSF was added to a concentration of 2.43 pg/mL (or 0.17 pM), the same as found in healthy human bodies. The control samples were supplemented with the same concentration of PBS and BSA as present in 2.43 pg/mL (or 0.17 pM) GM-CSF samples.
(§4) After incubating at 37° C. for 1 h with shaking at 200 rpm, the samples were plated on LB agar plates (15 g/L bacto agar) using drop plate method. The agar plates were then incubated for 24 h at 37° C. to count the total number of persister cells and understand the effect of 0.17 pM GM-CSF on the viability of persister cells.
(§5) To test the synergy with antibiotics, the above samples were then incubated at 37° C. for 3.5 h with shaking at 200 rpm after adding the selected antibiotic. After 3.5 h, the CFU of samples was quantified in the same way to understand if there is any synergy between GM-CSF and antibiotic. Similar treatments were performed on the total population in exponential phase as well. Apart from exponential phase, the synergistic effects of GM-CSF with antibiotics on total viable cells and persisters were also evaluated at stationary phase but PBS buffer (pH=7.4) was used in the experiments instead of 0.85% NaCl solution. Moreover, the 1 h and 3.5 h treatments were performed as co-treatments.

E. coli K12 = experiment: Effect of GM-CSF on planktonic E. coli K12 cells (total viable cells and persisters) at exponential phase, alone and with antibiotic; assay type: cell-based, Escherichia coli; conditions: for % change in avg. CFU/mL by GM-CSF (compared to GM-CSF free control) 20 μg/mL Tet / % change in avg. CFU/mL by GM-CSF (compared to GM-CSF free control) With 2 μg/mL Cip / % change in avg. CFU/mL by GM-CSF (compared to GM-CSF free control) With 70 μg/mL Tob / % change in avg. CFU/mL by GM-CSF (compared to GM-CSF free control) With 200 μg/mL Gen: E. coli K12 exponential phase, 0.17 pM GM-CSF; for % change in avg. CFU/ml after adding factor + CIP / % change in avg. CFU/ml after adding factor + TET / % change in avg. CFU/ml after adding factor + TOB / % change in avg. CFU/ml after adding factor + GEN: planktonic E. coli K12; for % change in avg. CFU/ml after adding factor + CIP: 2.43 pg/mL GM-CSF with 2 μg/mL ciprofloxacin; for % change in avg. CFU/ml after adding factor + TET: 2.43 pg/mL GM-CSF with 20 μg/mL tetracycline; for % change in avg. CFU/ml after adding factor + TOB: 2.43 pg/mL GM-CSF with 70 μg/mL tobramycin; for % change in avg. CFU/ml after adding factor + GEN: 2.43 pg/mL GM-CSF with 200 μg/mL gentamicin
Procedure: as §1, §2, §3, §4, §5

[1] = system: membrane fractions of P. aeruginosa; experiment: GM-CSF binding to non-denatured cellular fractions (non-denatured PAGE, Western blotting); parameters: species or system Pseudomonas aeruginosa; conditions: P. aeruginosa fractions incubated with GM-CSF, Western blotting (FIG. 22)
Procedure: Cell fractionation was done as described by George et al. (1986) with some modification. Briefly, cell pellets from stationary phase PAO1 were suspended in 1 ml of PBS buffer (pH7.2) containing 0.2 mg/mL lysozyme, protease inhibitor cocktail (Roche), chilled on ice, and sonicated (20 bursts, 10 s each at 70 W) with a Sonicator Q500 (Qsonica). The unbroken cells and debris were removed by centrifugation at 15,600×g for 5 min at 4° C. The supernatant was transferred to a 1.5 mL centrifuge tube, and the cell membranes were precipitated from the supernatant by centrifugation in a microcentrifuge at 15,600×g for 1 hour at 4° C. The supernatant was saved as cytoplasm fraction. To further separate inner and outer membrane proteins, the membrane pellets were thoroughly suspended in 0.1 ml of PBS buffer supplemented with 1% Sarkosyl by repeated pipetting. Following incubation for 30 minutes with intermittent mixing at room temperature, the suspension was centrifuged at 15,600×g for 1 hour at 4° C. […]
Different cellular components (30 μL) from P. aeruginosa were mixed with GM-CSF (20 ng) and incubated at room temperature for 2 hours. […] The separated samples were then subjected to Western blotting and detected by Human GM-CSF Monoclonal Antibody as described in whole cell binding assay.

[2] = 2.43 pg/ml GM-CSF with 200 μg/mL ciprofloxacin
[3] = 2.43 pg/ml GM-CSF with 200 μg/mL gentamicin
[4] = 2.43 pg/ml GM-CSF with 200 μg/mL tetracycline
[5] = 2.43 pg/ml GM-CSF with 200 μg/mL tobramycin
[6] = total viable cells, listed as factor

“GM-CSF: granulocyte macrophage-colony stimulating factor, a cytokine secreted by macrophages; recombinant human GM-CSF (R&D systems) in binding tests” was tested, and the “persister cells rendered sensitive to the antibiotic ciprofloxacin” value (P. aeruginosa PAO1; P. aeruginosa persister cells, GM-CSF at 2.43 pg/mL) was “more than 97%”, the “% change in avg. CFU/ml after adding factor + CIP” value (P. aeruginosa PAO1; persisters) was −97.95% and the “% change in avg. CFU/ml after adding factor + GEN” value (P. aeruginosa PAO1; persisters) was −59.31%. For the same substance, the “% change in avg. CFU/ml after adding factor + TET” value (P. aeruginosa PAO1; persisters) was −65.66%, the “% change in avg. CFU/ml after adding factor + TOB” value (P. aeruginosa PAO1; persisters) was −81.42% and the “average CFU/mL of persisters reduced by” value (P. aeruginosa PAO1; [2]) was 97.95%. For the same substance, the “average CFU/mL of total viable cells reduced by” value (P. aeruginosa PAO1; [2]) was 15.38%, the “average CFU/mL of persisters reduced by” value (P. aeruginosa PAO1; [3]) was 59.31% and the “average CFU/mL of total viable cells reduced by” value (P. aeruginosa PAO1; [3]) was 10.53%. For the same substance, the “average CFU/mL of persisters reduced by” value (P. aeruginosa PAO1; [4]) was 65.66%, the “average CFU/mL of total viable cells reduced by” value (P. aeruginosa PAO1; [4]) was 23.06% and the “average CFU/mL of persisters reduced by” value (P. aeruginosa PAO1; [5]) was 81.42%. The “average CFU/mL of total viable cells reduced by” value (P. aeruginosa PAO1; [5]) was 34.62%, the “% change in avg. CFU/ml after adding factor” value (P. aeruginosa PAO1; total viable cells, planktonic PAO1, exponential phase, 2.43 pg/mL GM-CSF alone, 1 h) was −2.22% and −5.00% and −2.94% and −1.69% and the “% change in avg. CFU/ml after adding factor + CIP” value (P. aeruginosa PAO1; total viable cells) was −15.38%. The “% change in avg. CFU/ml after adding factor + GEN” value (P. aeruginosa PAO1; total viable cells) was −10.53%, the “% change in avg. CFU/ml after adding factor + TET” value (P. aeruginosa PAO1; total viable cells) was −23.08% and the “% change in avg. CFU/ml after adding factor + TOB” value (P. aeruginosa PAO1; total viable cells) was −34.62%. The “effect on E. coli persister cells” value (E. coli K12; compared to the pathogenic strain P. aeruginosa) was “ineffective”, the “% change in avg. CFU/mL by GM-CSF (compared to GM-CSF free control) 20 μg/mL Tet” value (E. coli K12; persisters) was −6.7% and the “% change in avg. CFU/mL by GM-CSF (compared to GM-CSF free control) With 2 μg/mL Cip” value (E. coli K12; persisters) was −4.8%. The “% change in avg. CFU/mL by GM-CSF (compared to GM-CSF free control) With 70 μg/mL Tob” value (E. coli K12; persisters) was “+1.5%”, the “% change in avg. CFU/mL by GM-CSF (compared to GM-CSF free control) With 200 μg/mL Gen” value (E. coli K12; persisters) was “+11.1%” and the “% change in avg. CFU/ml after adding factor + CIP” value (E. coli K12; persisters) was −6.18%. For the same substance, the “% change in avg. CFU/ml after adding factor + CIP” value (E. coli K12; persisters, listed as factor) was −6.18%, the “% change in avg. CFU/ml after adding factor + TET” value (E. coli K12; persisters) was “+12.00%” and the “% change in avg. CFU/ml after adding factor + TET” value (E. coli K12; persisters, listed as factor) was “+12.00%”. For the same substance, the “% change in avg. CFU/ml after adding factor + TOB” value (E. coli K12; persisters) was “+11.16%”, the “% change in avg. CFU/ml after adding factor + TOB” value (E. coli K12; persisters, listed as factor) was “+11.16%” and the “% change in avg. CFU/ml after adding factor + GEN” value (E. coli K12; persisters) was “+18.52%”. For the same substance, the “% change in avg. CFU/ml after adding factor + GEN” value (E. coli K12; persisters, listed as factor) was “+18.52%”, the “% change in avg. CFU/mL by GM-CSF (compared to GM-CSF free control) 20 μg/mL Tet” value (E. coli K12; total viable cells) was −19.0% and the “% change in avg. CFU/mL by GM-CSF (compared to GM-CSF free control) With 2 μg/mL Cip” value (E. coli K12; total viable cells) was “+5.9%”. For the same substance, the “% change in avg. CFU/mL by GM-CSF (compared to GM-CSF free control) With 70 μg/mL Tob” value (E. coli K12; total viable cells) was −32.0%, the “% change in avg. CFU/mL by GM-CSF (compared to GM-CSF free control) With 200 μg/mL Gen” value (E. coli K12; total viable cells) was −31.3% and the “% change in avg. CFU/ml after adding factor + CIP” value (E. coli K12; total viable cells) was “+5.88%”. The “% change in avg. CFU/ml after adding factor + CIP” value (E. coli K12; [6]) was “+5.88%”, the “% change in avg. CFU/ml after adding factor + TET” value (E. coli K12; total viable cells) was −19.05% and the “% change in avg. CFU/ml after adding factor + TET” value (E. coli K12; [6]) was −19.05%. For the same substance, the “% change in avg. CFU/ml after adding factor + TOB” value (E. coli K12; total viable cells) was −32.00%, the “% change in avg. CFU/ml after adding factor + TOB” value (E. coli K12; [6]) was −32.00% and the “% change in avg. CFU/ml after adding factor + GEN” value (E. coli K12; total viable cells) was −31.34%. For the same substance, the “% change in avg. CFU/ml after adding factor + GEN” value (E. coli K12; [6]) was −31.34% and the “binding to cellular components” value [1] was “preferentially binds to membrane fractions”.
